How the values were obtained:
[1] = Antisense effect in human 607B cells assessed as down-regulation of bcl2 expression at 100 nM after 48 hrs by Western blot analysis relative to control; assay type: functional
Nucleic Acid [2] = test: Duplex stability of RNA counter strand assessed as melting temperature; assay type: nucleic-acid assay
Nucleic Acid [3] = test: Duplex stability of DNA counter strand assessed as melting temperature; assay type: nucleic-acid assay

Row | SMILES | Activity [1] [%] | Tm (Nucleic Acid [2]) [°C] | Tm (Nucleic Acid [3]) [°C]
1 | Cc1cn([C@H]2C[C@H](OP(O)(=S)OC[C@H]3O[C@@H](n4cnc5c(N)ncnc54)[C@H](O)[C@@H]3OP(O)(=S)OC[C@H]3O[C@@H](n4ccc(N)nc4=O)[C@H](O)[C@@H]3OP(O)(=S)OC[C@H]3O[C@@H](n4ccc(N)nc4=O)[C@H](O)[C@@H]3OP(O)(=S)OC[C@H]3O[C@@H](n4cnc5c(=O)[nH]c(N)nc54)[C@H](O)[C@@H]3OP(O)(=S)OC[C@H]3O[C@@H](n4ccc(N)nc4=O)[C@H](O)[C@@H]3OP(O)(=S)OC[C@H]3O[C@@H](n4cnc5c(=O)[nH]c(N)nc54)[C@H](O)[C@@H]3OP(O)(=S)OC[C@H]3O[C@@H](n4cc(C)c(=O)[nH]c4=O)C[C@@H]3OP(O)(=S)OC[C@H]3O[C@@H](n4cnc5c(=O)[nH]c(N)nc54)[C@H](O)[C@@H]3OP(O)(=S)OC[C@H]3O[C@@H](n4ccc(N)nc4=O)[C@H](O)[C@@H]3OP(O)(=S)OC[C@H]3O[C@@H](n4cnc5c(=O)[nH]c(N)nc54)[C@H](O)[C@@H]3OP(O)(=S)OC[C@H]3O[C@@H](n4cnc5c(N)ncnc54)[C@H](O)[C@@H]3OP(O)(=S)OC[C@H]3O[C@@H](n4ccc(N)nc4=O)[C@H](O)[C@@H]3OP(O)(=S)OC[C@H]3O[C@@H](n4ccc(N)nc4=O)[C@H](O)[C@@H]3OP(O)(=S)OC[C@H]3O[C@@H](n4ccc(N)nc4=O)[C@H](O)[C@@H]3OP(O)(=S)OC[C@H]3O[C@@H](n4cc(C)c(=O)[nH]c4=O)C[C@@H]3OP(O)(=S)OC[C@H]3O[C@@H](n4ccc(N)nc4=O)[C@H](O)[C@@H]3OP(O)(=S)OC[C@H]3O[C@@H](n4cc(C)c(=O)[nH]c4=O)C[C@@H]3O)[C@@H](CO)O2)c(=O)[nH]c1=O (some centres not stated) | 25 | 53.1 | 71.4
2 | Cc1cn([C@H]2C[C@H](OP(O)(=S)OC[C@H]3O[C@@H](n4ccc(N)nc4=O)[C@H](O)[C@@H]3OP(O)(=S)OC[C@H]3O[C@@H](n4cc(C)c(=O)[nH]c4=O)C[C@@H]3O)[C@@H](COP(O)(=S)O[C@H]3[C@@H](O)[C@H](n4ccc(N)nc4=O)O[C@@H]3COP(O)(=S)O[C@H]3[C@@H](O)[C@H](n4ccc(N)nc4=O)O[C@@H]3COP(O)(=S)O[C@H]3[C@@H](O)[C@H](n4ccc(N)nc4=O)O[C@@H]3COP(O)(=S)O[C@H]3[C@@H](O)[C@H](n4cnc5c(N)ncnc54)O[C@@H]3COP(O)(=S)O[C@H]3[C@@H](O)[C@H](n4cnc5c(=O)[nH]c(N)nc54)O[C@@H]3COP(O)(=S)O[C@H]3[C@@H](O)[C@H](n4ccc(N)nc4=O)O[C@@H]3COP(O)(=S)O[C@H]3[C@@H](O)[C@H](n4cnc5c(=O)[nH]c(N)nc54)O[C@@H]3COP(O)(=S)O[C@H]3C[C@H](n4cc(C)c(=O)[nH]c4=O)O[C@@H]3COP(O)(=S)O[C@H]3[C@@H](O)[C@H](n4cnc5c(=O)[nH]c(N)nc54)O[C@@H]3COP(O)(=S)O[C@H]3[C@@H](O)[C@H](n4ccc(N)nc4=O)O[C@@H]3COP(O)(=S)O[C@H]3[C@@H](O)[C@H](n4cnc5c(=O)[nH]c(N)nc54)O[C@@H]3COP(O)(=S)O[C@H]3[C@@H](O)[C@H](n4ccc(N)nc4=O)O[C@@H]3COP(O)(=S)O[C@H]3[C@@H](O)[C@H](n4ccc(N)nc4=O)O[C@@H]3COP(O)(=S)O[C@H]3[C@@H](O)[C@H](n4cnc5c(N)ncnc54)O[C@@H]3COP(O)(=S)O[C@H]3[C@@H](NCCCNCCCCNCCCN)[C@H](n4ccc(=O)[nH]c4=O)O[C@@H]3CO)O2)c(=O)[nH]c1=O (some centres not stated) | 19.4 | 53.5 | 68.5
3 | Cc1cn([C@H]2C[C@H](OP(O)(=S)OC[C@H]3O[C@@H](n4ccc(N)nc4=O)[C@H](O)[C@@H]3OP(O)(=S)OC[C@H]3O[C@@H](n4cc(C)c(=O)[nH]c4=O)C[C@@H]3O)[C@@H](COP(O)(=S)O[C@H]3[C@@H](O)[C@H](n4ccc(N)nc4=O)O[C@@H]3COP(O)(=S)O[C@H]3[C@@H](O)[C@H](n4ccc(N)nc4=O)O[C@@H]3COP(O)(=S)O[C@H]3[C@@H](O)[C@H](n4ccc(N)nc4=O)O[C@@H]3COP(O)(=S)O[C@H]3[C@@H](O)[C@H](n4cnc5c(N)ncnc54)O[C@@H]3COP(O)(=S)O[C@H]3[C@@H](O)[C@H](n4cnc5c(=O)[nH]c(N)nc54)O[C@@H]3COP(O)(=S)O[C@H]3[C@@H](O)[C@H](n4ccc(N)nc4=O)O[C@@H]3COP(O)(=S)O[C@H]3[C@@H](O)[C@H](n4cnc5c(=O)[nH]c(N)nc54)O[C@@H]3COP(O)(=S)O[C@H]3C[C@H](n4cc(C)c(=O)[nH]c4=O)O[C@@H]3COP(O)(=S)O[C@H]3[C@@H](O)[C@H](n4cnc5c(=O)[nH]c(N)nc54)O[C@@H]3COP(O)(=S)O[C@H]3[C@@H](O)[C@H](n4ccc(N)nc4=O)O[C@@H]3COP(O)(=S)O[C@H]3[C@@H](O)[C@H](n4cnc5c(=O)[nH]c(N)nc54)O[C@@H]3COP(O)(=S)O[C@H]3[C@@H](O)[C@H](n4ccc(N)nc4=O)O[C@@H]3COP(O)(=S)O[C@H]3[C@@H](O)[C@H](n4ccc(N)nc4=O)O[C@@H]3COP(O)(=S)O[C@H]3[C@@H](O)[C@H](n4cnc5c(N)ncnc54)O[C@@H]3COP(O)(=S)O[C@H]3[C@@H](NCCCCNCCN)[C@H](n4ccc(=O)[nH]c4=O)O[C@@H]3CO)O2)c(=O)[nH]c1=O (some centres not stated) | 57.6 | 51.4 | 65.1
4 | Cc1cn([C@H]2C[C@H](OP(O)(=S)OC[C@H]3O[C@@H](n4ccc(N)nc4=O)[C@H](O)[C@@H]3OP(O)(=S)OC[C@H]3O[C@@H](n4cc(C)c(=O)[nH]c4=O)C[C@@H]3O)[C@@H](COP(O)(=S)O[C@H]3[C@@H](O)[C@H](n4ccc(N)nc4=O)O[C@@H]3COP(O)(=S)O[C@H]3[C@@H](O)[C@H](n4ccc(N)nc4=O)O[C@@H]3COP(O)(=S)O[C@H]3[C@@H](O)[C@H](n4ccc(N)nc4=O)O[C@@H]3COP(O)(=S)O[C@H]3[C@@H](O)[C@H](n4cnc5c(N)ncnc54)O[C@@H]3COP(O)(=S)O[C@H]3[C@@H](O)[C@H](n4cnc5c(=O)[nH]c(N)nc54)O[C@@H]3COP(O)(=S)O[C@H]3[C@@H](O)[C@H](n4ccc(N)nc4=O)O[C@@H]3COP(O)(=S)O[C@H]3[C@@H](O)[C@H](n4cnc5c(=O)[nH]c(N)nc54)O[C@@H]3COP(O)(=S)O[C@H]3C[C@H](n4cc(C)c(=O)[nH]c4=O)O[C@@H]3COP(O)(=S)O[C@H]3[C@@H](O)[C@H](n4cnc5c(=O)[nH]c(N)nc54)O[C@@H]3COP(O)(=S)O[C@H]3[C@@H](O)[C@H](n4ccc(N)nc4=O)O[C@@H]3COP(O)(=S)O[C@H]3[C@@H](O)[C@H](n4cnc5c(=O)[nH]c(N)nc54)O[C@@H]3COP(O)(=S)O[C@H]3[C@@H](O)[C@H](n4ccc(N)nc4=O)O[C@@H]3COP(O)(=S)O[C@H]3[C@@H](O)[C@H](n4ccc(N)nc4=O)O[C@@H]3COP(O)(=S)O[C@H]3[C@@H](O)[C@H](n4cnc5c(N)ncnc54)O[C@@H]3COP(O)(=S)O[C@H]3[C@@H](NCCCNCCCCNCCCNCCCN)[C@H](n4ccc(=O)[nH]c4=O)O[C@@H]3CO)O2)c(=O)[nH]c1=O (some centres not stated) | 18.5 | 53.6 | 71.6
5 | Cc1cn([C@H]2C[C@H](OP(O)(=S)OC[C@H]3O[C@@H](n4ccc(N)nc4=O)[C@H](O)[C@@H]3OP(O)(=S)OC[C@H]3O[C@@H](n4cc(C)c(=O)[nH]c4=O)C[C@@H]3O)[C@@H](COP(O)(=S)O[C@H]3[C@@H](O)[C@H](n4ccc(N)nc4=O)O[C@@H]3COP(O)(=S)O[C@H]3[C@@H](O)[C@H](n4ccc(N)nc4=O)O[C@@H]3COP(O)(=S)O[C@H]3[C@@H](O)[C@H](n4ccc(N)nc4=O)O[C@@H]3COP(O)(=S)O[C@H]3[C@@H](O)[C@H](n4cnc5c(N)ncnc54)O[C@@H]3COP(O)(=S)O[C@H]3[C@@H](O)[C@H](n4cnc5c(=O)[nH]c(N)nc54)O[C@@H]3COP(O)(=S)O[C@H]3[C@@H](O)[C@H](n4ccc(N)nc4=O)O[C@@H]3COP(O)(=S)O[C@H]3[C@@H](O)[C@H](n4cnc5c(=O)[nH]c(N)nc54)O[C@@H]3COP(O)(=S)O[C@H]3C[C@H](n4cc(C)c(=O)[nH]c4=O)O[C@@H]3COP(O)(=S)O[C@H]3[C@@H](O)[C@H](n4cnc5c(=O)[nH]c(N)nc54)O[C@@H]3COP(O)(=S)O[C@H]3[C@@H](O)[C@H](n4ccc(N)nc4=O)O[C@@H]3COP(O)(=S)O[C@H]3[C@@H](O)[C@H](n4cnc5c(=O)[nH]c(N)nc54)O[C@@H]3COP(O)(=S)O[C@H]3[C@@H](O)[C@H](n4ccc(N)nc4=O)O[C@@H]3COP(O)(=S)O[C@H]3[C@@H](O)[C@H](n4ccc(N)nc4=O)O[C@@H]3COP(O)(=S)O[C@H]3[C@@H](O)[C@H](n4cnc5c(N)ncnc54)O[C@@H]3COP(O)(=S)O[C@H]3[C@@H](NCCCCN)[C@H](n4ccc(=O)[nH]c4=O)O[C@@H]3CO)O2)c(=O)[nH]c1=O (some centres not stated) | 70.6 | 50.1 | 67.6
6 | Cc1cn([C@@H]2O[C@H](COP(=O)(O)O[C@H]3[C@@H](O)[C@H](n4ccc(N)nc4=O)O[C@@H]3COP(=O)(O)O[C@H]3[C@@H](O)[C@H](n4ccc(N)nc4=O)O[C@@H]3COP(=O)(O)O[C@H]3[C@@H](O)[C@H](n4ccc(N)nc4=O)O[C@@H]3COP(=O)(O)O[C@H]3[C@@H](O)[C@H](n4cnc5c(N)ncnc54)O[C@@H]3COP(=O)(O)O[C@H]3[C@@H](O)[C@H](n4cnc5c(=O)[nH]c(N)nc54)O[C@@H]3COP(=O)(O)O[C@H]3[C@@H](O)[C@H](n4ccc(N)nc4=O)O[C@@H]3COP(=O)(O)O[C@H]3[C@@H](O)[C@H](n4cnc5c(=O)[nH]c(N)nc54)O[C@@H]3COP(=O)(O)O[C@H]3[C@@H](NCCCNCCCCNCCCN)[C@H](n4ccc(=O)[nH]c4=O)O[C@@H]3COP(=O)(O)O[C@H]3[C@@H](O)[C@H](n4cnc5c(=O)[nH]c(N)nc54)O[C@@H]3COP(=O)(O)O[C@H]3[C@@H](O)[C@H](n4ccc(N)nc4=O)O[C@@H]3COP(=O)(O)O[C@H]3[C@@H](O)[C@H](n4cnc5c(=O)[nH]c(N)nc54)O[C@@H]3COP(=O)(O)O[C@H]3[C@@H](O)[C@H](n4ccc(N)nc4=O)O[C@@H]3COP(=O)(O)O[C@H]3[C@@H](O)[C@H](n4ccc(N)nc4=O)O[C@@H]3COP(=O)(O)O[C@H]3[C@@H](O)[C@H](n4cnc5c(N)ncnc54)O[C@@H]3COP(=O)(O)O[C@H]3C[C@H](n4cc(C)c(=O)[nH]c4=O)O[C@@H]3CO)[C@@H](OP(=O)(O)OC[C@H]3O[C@@H](n4ccc(N)nc4=O)[C@H](O)[C@@H]3OP(=O)(O)OC[C@H]3O[C@@H](n4ccc(=O)[nH]c4=O)[C@H](NCCCNCCCCNCCCN)[C@@H]3O)[C@H]2NCCCNCCCCNCCCN)c(=O)[nH]c1=O |  | 45.8 | 70.6

From ChEMBL document CHEMBL1153884, “Oligonucleotide-polyamine conjugates: influence of length and position of 2'-attached polyamines on duplex stability and antisense effect” (2009)
